The values that follow come from ChEMBL document CHEMBL3046374, “Preparation of 5-chloro-6-fluoroimidacloprid analogs and comparison of their insecticidal activity in a laboratory test with a 6-chloro-5-fluoro analog” (J Pestic Sci, 2007).

In one data set the test system is Nilaparvata lugens. Briefly: Insecticidal activity against Nilaparvata lugens (brown planthopper) second or third-instar nymphs fed on compound pre-treated rice seedlings assessed as insect mortality measured 5 days post compound treatment. The class given is functional.
The next data set concerns Spodoptera litura. Nature of the data set: Insecticidal activity against Spodoptera litura second-instar larvae fed on compound pre-treated cabbage leaves assessed as insect mortality measured 5 days post compound treatment. The class given is functional.
Another data set deals with Myzus persicae. Briefly: Insecticidal activity against Myzus persicae (green peach aphid) first-instar nymphs fed on compound pre-treated egg plant seedlings or Japanese radish leaves assessed as insect mortality measured 5 days post compound treatment. The data set is classed as functional.
Data set [1] in a line: Lipophilicity, logP of the compound at 25 degC. The data set is classed as physicochemical. The conditions noted are these: octanol/water.

In the case of `N#C/N=C1/OCCN1Cc1cnc(F)c(Cl)c1`, the figures for the LD90 with Nilaparvata lugens, in the data set on Spodoptera litura and in the data set with Myzus persicae were more than 200 ppm, more than 200 ppm and 200 ppm, respectively.
For `N#C/N=C1/SCCN1Cc1cnc(F)c(Cl)c1`, the values for the LD90 with Nilaparvata lugens, in the data set with Spodoptera litura and in the data set on Myzus persicae were more than 200 ppm, more than 200 ppm and 50 ppm, respectively.
For the compound `N#C/N=C1/NCCN1Cc1cnc(F)c(Cl)c1`, the LD90 in the data set on Nilaparvata lugens is on record as more than 200 ppm; with Spodoptera litura, more than 200 ppm; in the data set on Myzus persicae, 200 ppm.
As for `O=[N+]([O-])/N=C1/NCCN1Cc1cnc(F)c(Cl)c1`, the LD90 with Nilaparvata lugens is reported as 50 ppm; in the data set with Spodoptera litura, more than 200 ppm; with Myzus persicae it was 200 ppm. Moreover, in data set [1], the logP (as a rule, a log measure of how a compound divides between an organic and an aqueous phase) came out at 0.98.
For the compound `O=[N+]([O-])/N=C1/SCCN1Cc1cnc(F)c(Cl)c1`, the LD90 in the data set with Nilaparvata lugens, in the data set with Spodoptera litura and with Myzus persicae was more than 200 ppm throughout.
As to `O=[N+]([O-])/N=C1/NCCN1Cc1cnc(Cl)c(F)c1` [5-FLUOROIMIDACLOPRID], the LD90 in the data set with Nilaparvata lugens is 0.2 ppm; in the data set with Spodoptera litura, more than 50 ppm; in the data set on Myzus persicae, 0.2 ppm. In data set [1], this compound yielded a log partition coefficient (logP) of 0.79.
For `O=[N+]([O-])/N=C1\NCCN1Cc1ccc(Cl)nc1` [IMIDACLOPRID], the LD90 in the data set on Nilaparvata lugens is 0.2 ppm; in the data set on Spodoptera litura it was more than 50 ppm; in the data set with Myzus persicae, 0.2 ppm.
